Measurements taken from US5322846A, “4-methylthiazole derivatives, their methods of preparation and the pharmaceutical compositions in which they are present” (Institut de Recherches Chimiques et Biologiques Appliquees …, priority 1990, dated 1994).
Structures can show the parent of a compound that is named as a salt. Where two headings read alike, the source gives them in different places.

Tests used:
[1] = target: T1, postsynaptic alpha-adrenergic receptors (Rattus norvegicus, UniProt P43140); experiment: Alpha-blocking activity towards norepinephrine on isolated rat vas deferens; type: biochemical; conditions: -log of concentration requiring doubled norepinephrine, read-out: pA2 (converted)
T1 construct: causes contraction of the isolated vas deferens; from tissue; host or cells: isolated rat vas deferens
T1 sequence (P43140 1-466): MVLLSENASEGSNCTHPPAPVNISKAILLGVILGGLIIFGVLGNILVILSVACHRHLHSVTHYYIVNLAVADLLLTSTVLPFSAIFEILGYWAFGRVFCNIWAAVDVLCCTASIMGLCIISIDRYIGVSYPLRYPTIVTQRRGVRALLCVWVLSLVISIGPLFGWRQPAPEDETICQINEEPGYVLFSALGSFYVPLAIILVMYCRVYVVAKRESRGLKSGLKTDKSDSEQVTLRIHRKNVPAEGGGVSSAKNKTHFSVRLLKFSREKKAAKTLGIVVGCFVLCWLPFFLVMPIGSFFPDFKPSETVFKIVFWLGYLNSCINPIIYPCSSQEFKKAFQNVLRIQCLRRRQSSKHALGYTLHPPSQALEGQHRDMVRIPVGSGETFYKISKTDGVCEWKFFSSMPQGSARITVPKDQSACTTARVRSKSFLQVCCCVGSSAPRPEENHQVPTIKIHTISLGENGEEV
Method: Stimulation of the postsynaptic alpha-adrenergic receptors by norepinephrine causes contraction of the isolated vas deferens.
The concentration of product in whose presence the norepinephrine concentration must be doubled in order to obtain the same effect as in the absence of said product is determined. The logarithm of this concentration, with the opposite sign, constitutes the pA2 of the products.
Their alpha-blocking activity is high since it appears for low concentrations of between 10^-6 M and 10^-8 M.

[2] = tested on: lethal effect of norepinephrine; experiment: Adrenolytic activity in vivo on the lethal effect of norepinephrine in rats; conditions: for ED50: Rattus norvegicus, wake male rats, norepinephrine 0.4 mg.kg^-1 intravenous, prior administration of product, read-out: ED50 (dose which protects 50% of the animals); for adrenolytic activity in the whole animals: rats, in words
Method: The intravenous injection of norepinephrine (0.4 mg.kg^-1) into wake male rats causes the death of 100% of the animals. The prior administration of a substance which has an alpha-blocking property makes it possible to reduce this toxicity.
The results are expressed in the form of the 50% effective dose (ED50), i.e. the dose in mg.kg^-1 which protects 50% of the animals (Table 5).

[3] = tested on: femoral blood pressure and heart rate; experiment: Cardiovascular activity (blood pressure and heart rate) in anesthetized rats; type: in vivo; conditions: for Heart rate, maximum effect in % / ED25: I.V., pentobarbital-anesthetized rats; for ED25: Rattus norvegicus, iv, 25% drop in average blood pressure
Method: The cardiovascular effects of three products were studied in rats anesthetized with pentobarbital and placed under artificial respiration. The femoral blood pressure and the heart rate are recorded by means of a GOULD-BRUSH apparatus.
The products are administered intravenously in increasing doses. Three animals are tested per product. The dose which causes a 25% drop in average blood pressure (ED25) was evaluated for each product and compared with nicardipine 1 to 5 min after administration.
The products have dose-dependent hypotensive effects but have little or no effect on the heart rate (Table 7). The most hypotensive in terms of the effective dose is B 1395 (ED25 of 0.004 mg.kg^-1).

[4] = Acute toxicity in mice (oral, LD50); conditions: mouse, in vivo, male mice, single dose, 14-day observation
Method: The products were administered orally in a single dose to male mice with an average weight of 22 g. The mortality was recorded after a 14-day observation period.
The results are expressed in the form of the 50% lethal dose (LD50), i.e. the theoretical dose in mg.kg^-1, administered orally, which causes the death of 50% of the animals.
The majority of the molecules have an LD50 of more than 1 g.kg^-1. These are therefore products with a low toxicity after a single administration.

[5] = tested on: hypertension induced by norepinephrine; experiment: Inhibitory activity towards hypertension induced by norepinephrine in anesthetized rabbits; type: in vivo; conditions: anesthetized male rabbits, intravenous; for ED50: Oryctolagus cuniculus, read-out: ID50 (50% inhibition of norepinephrine-induced hypertension)
Method: The blood pressure is measured by catheterization of the left carotid artery of anesthetized male rabbits. An increase in blood pressure is induced by an intravenous injection of norepinephrine. This hypertension can be inhibited by the prior administration of molecules with an alpha-blocking potential.
These are presented in Table 6 in the form of the 50% inhibitory dose (ID50), which is defined as the dose of product which, when administered intravenously, causes a 50% inhibition of the hypertension induced by norepinephrine.

[6] = 1 min, 1 minute, read-out: Blood pressure: Hypotension, ED25 at 1 minute
[7] = 5 min, 5 minutes, read-out: Blood pressure: Hypotension, ED25 at 5 minutes

CCCOc1ccccc1N1CCN(CC(O)COc2scnc2C)CC1 (stereo not drawn) [B 1395, 3-(4-o-propoxyphenylpiperazin-1-yl)-1-(4-methylthiazolyl-5-oxy)propan-2-olmonohydrochloride]
Kb [1]: 20 nM | ED50 [2]: 0.2 mg/kg | adrenolytic activity in the whole animals [2]: very active | hypotensive potential compared with nicardipine ([3]; ED25 values 5 min after I.V. injection, in words): on a level with that of nicardipine | Heart rate, maximum effect in % [3]: -4% | ED25 [3, 6]: 0.004 mg/kg | ED25 [3, 7]: 0.1 mg/kg | LD50 at 336 h [4]: 515 mg/kg | ED50 [5]: 0.2 mg/kg | active dose [5]: less than 1 mg.kg^-1 | effectiveness against norepinephrine-induced hypertension ([5]; in words): particularly effective

CCOc1ccccc1N1CCN(CC(O)COc2scnc2C)CC1 (stereo not drawn) [B 1392, 3-(4-o-ethoxyphenylpiperazin-1-yl)-1-(4-methylthiazolyl-5-oxy)propan-2-ol]
Kb [1]: 13.2 nM | ED50 [2]: 0.3 mg/kg | adrenolytic activity in the whole animals [2]: very active | Heart rate, maximum effect in % [3]: -11.2% | ED25 [3, 6]: 0.024 mg/kg | ED25 [3, 7]: 0.048 mg/kg | LD50 at 336 h [4]: 260 mg/kg | ED50 [5]: 2.6 mg/kg

CCOc1ccccc1N1CCN(CCOc2scnc2C)CC1 [B 1258, 4-methyl-5-[2-(4-o-ethoxyphenylpiperazin-1-yl)ethoxy]thiazole]
Kb [1]: 15.8 nM | ED50 [2]: 6.5 mg/kg | adrenolytic activity in the whole animals [2]: very active | Heart rate, maximum effect in % [3]: -5.6% | ED25 [3, 6]: 0.8 mg/kg | ED25 [3, 7]: 1 mg/kg | LD50 at 336 h [4]: > 1000 mg/kg | ED50 [5]: 5.6 mg/kg
